System: WM3248 melanoma cells, 486 antibodies
Assay: Reverse phase protein arrays (RPPA);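 as to RPPA AceCS1.R.V: ratio of treated to vehicle (0 µM) normalized linear protein signal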;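 as to RPPA Akt1 pS473.R.V: ratio of treated to vehicle (0 µM) normalized linear protein signal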;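 as to RPPA Akt1.R.V: ratio of treated to vehicle (0 µM) normalized linear protein signal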;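 as to RPPA Ambra1 pS52.R.C: ratio of treated to vehicle (0 µM) normalized linear protein signal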;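 as to RPPA Atg5.R.C: ratio of treated to vehicle (0 µM) normalized linear protein signal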;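 as to RPPA Bim.R.V: ratio of treated to vehicle (0 µM) normalized linear protein signal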
Format: cell-based, Human
Settings: 10 uM, Average
From the text: Pellets were snap frozen in liquid nitrogen and shipped to MD Anderson Cancer Center core RPPA facility for RPPA analysis (Table S5). Three biological replicates for each sample were generated.
Nomenclatures on the RPPA heatmaps: name_of_antibody.species_of_antibody.status_of_antibody. V - antibody validated; C - validation of antibody in progress; Q - antibody nonspecific; E – under evaluation; antibodies raised in M - mouse, G - goat, R - rabbit, or T - rat.

For `CN(C)c1cccc(Nc2cc(-c3ccccc3)nc(C3CCNCC3)n2)c1` [ARN22089, N1,N1-dimethyl-N3-(6-phenyl-2-(piperidin-4-yl)pyrimidin-4-yl)benzene-1,3-diamine], the “RPPA ATM.R.V” value was 0.927, the “RPPA ATM_pS1981.R.V” value was 1.057 and the “RPPA ATP5A.M.C” value was 0.974. For the same molecule, the “RPPA ATP5H.R.V” value was 1.098, the “RPPA ATR.R.V” value was 1.026 and the “RPPA ATRX.R.C” value was 0.906. For the same molecule, the “RPPA ATR_pS428.R.C” value was 0.986, the “RPPA AceCS1.R.V” value was 0.979 and the “RPPA Akt1.R.V” value was 0.907. For the same molecule, the “RPPA Akt1_pS473.R.V” value was 0.954, the “RPPA Akt2.R.V” value was 0.941 and the “RPPA Akt2_pS474.R.C” value was 1.021. The “RPPA Akt.R.V” value was 0.867, the “RPPA Akt_pT308.R.V” value was 0.981 and the “RPPA Ambra1_pS52.R.C” value was 1.030. The “RPPA Atg3.R.V” value was 0.962, the “RPPA Atg4B.R.C” value was 0.898 and the “RPPA Atg5.R.C” value was 0.891. The “RPPA Atg7.R.V” value was 0.851, the “RPPA Aurora.A.R.C” value was 1.056 and the “RPPA Aurora.ABC_pT288_pT232_pT198.R.C” value was 1.162. The “RPPA Axl.R.V” value was 0.783, the “RPPA B7.H4.R.C” value was 0.993 and the “RPPA B.Raf.R.C” value was 0.898. For the same molecule, the “RPPA B.Raf_pS445.R.V” value was 0.944, the “RPPA BAP1.M.V” value was 0.990 and the “RPPA BCL2A1.R.V” value was 1.335. The “RPPA BMK1.Erk5_pT218_Y220.R.V” value was 0.987, the “RPPA BRCA1.M.C” value was 1.014 and the “RPPA BRD4.R.V” value was 1.015. The “RPPA Bax.R.V” value was 0.964, the “RPPA Bcl2.R.C” value was 1.027 and the “RPPA Bcl.xL.R.V” value was 1.001. The “RPPA BiP.GRP78.M.C” value was 1.017, the “RPPA Bid.R.C” value was 0.983 and the “RPPA Bim.R.V” value was 0.937. The “RPPA DNMT1.R.V” value was 1.022, the “RPPA DRP1.R.V” value was 0.982 and the “RPPA DUSP4.R.V” value was 0.898. For the same molecule, the “RPPA DUSP6.R.C” value was 0.937, the “RPPA Dvl3.R.V” value was 0.985 and the “RPPA E.Cadherin.R.V” value was 1.055. The “RPPA EGFR.R.V” value was 0.930, the “RPPA EGFR_pY1068.R.C” value was 1.016 and the “RPPA EGFR_pY1173.R.V” value was 0.991. The “RPPA EMA.M.C” value was 1.130, the “RPPA ENY2.M.C” value was 1.020 and the “RPPA ER.a.R.V” value was 0.940. For the same molecule, the “RPPA ER.a_pS118.R.V” value was 0.975, the “RPPA ERCC5.R.C” value was 0.879 and the “RPPA EVI1.R.V” value was 1.063. For the same molecule, the “RPPA Elk1_pS383.R.C” value was 0.992, the “RPPA Enolase.1.R.V” value was 0.999 and the “RPPA EphA2.R.V” value was 1.002. The “RPPA EphA2_pS897.R.C” value was 1.008, the “RPPA EphA2_pY588.R.C” value was 0.983 and the “RPPA Erk5.R.V” value was 0.909. The “RPPA FABP5.R.C” value was 1.006, the “RPPA FAK.R.C” value was 0.977 and the “RPPA FAK_pY397.R.V” value was 1.056. For the same molecule, the “RPPA FANCD2.R.V” value was 1.010, the “RPPA FASN.R.V” value was 0.855 and the “RPPA FGF.basic.R.C” value was 0.941. For the same molecule, the “RPPA FN14.R.C” value was 1.032, the “RPPA FOXM1.R.V” value was 1.022 and the “RPPA FOXO3.R.V” value was 1.030. For the same molecule, the “RPPA FRS2.alpha_pY196.R.V” value was 1.286, the “RPPA FTO.R.V” value was 1.004 and the “RPPA Fibronectin.R.V” value was 0.843. For the same molecule, the “RPPA FoxO3a_pS318_S321.R.C” value was 1.028, the “RPPA G6PD.R.V” value was 1.065 and the “RPPA GATA3.M.V” value was 1.016. For the same molecule, the “RPPA GATA6.R.V” value was 1.046, the “RPPA GCLC.R.C” value was 0.968 and the “RPPA GCLM.R.V” value was 1.026. The “RPPA GCN5L2.R.V” value was 0.929, the “RPPA GGPS1.M.V” value was 1.006 and the “RPPA GRB2.R.V” value was 0.910. For the same molecule, the “RPPA GRB7.R.V” value was 0.970, the “RPPA GSK.3B.R.C” value was 0.917 and the “RPPA Gab2.R.V” value was 0.984. The “RPPA Gli1.R.C” value was 1.007, the “RPPA Gli3.R.C” value was 0.971 and the “RPPA Glucocorticoid.Receptor.R.V” value was 1.081. For the same molecule, the “RPPA Glutamate.D1.2.R.V” value was 1.054, the “RPPA Glutaminase.R.C” value was 0.935 and the “RPPA Granzyme.B.R.V” value was 0.974. The “RPPA Grp75.R.C” value was 1.080, the “RPPA Gys.R.V” value was 0.978 and the “RPPA Gys_pS641.R.V” value was 1.007. The “RPPA H2AX_pS139.R.C” value was 0.966, the “RPPA HER2.M.V” value was 1.022 and the “RPPA HER3.R.V” value was 0.985. The “RPPA HER3_pY1289.R.C” value was 0.975, the “RPPA HES1.R.V” value was 0.990 and the “RPPA Heregulin.R.V” value was 0.902. For the same molecule, the “RPPA X4E.BP1.R.V” value was 0.842, the “RPPA X4E.BP1_pS65.R.V” value was 1.009 and the “RPPA X4E.BP1_pT37_T46.R.V” value was 1.014. The “RPPA X14.3.3.zeta.R.V” value was 1.029, the “RPPA X14.3.3εM.C” value was 1.000 and the “RPPA X53BP1.R.V” value was 0.942. The “RPPA b.Actin.R.C” value was 1.019, the “RPPA b.Catenin_pT41_S45.R.V” value was 1.005 and the “RPPA c.Abl.R.V” value was 1.077. The “RPPA c.Abl_pY412.R.C” value was 0.962, the “RPPA c.IAP2.R.C” value was 1.022 and the “RPPA eIF4E.R.V” value was 0.979. For the same molecule, the “RPPA eIF4E_pS209.R.V” value was 1.021, the “RPPA eIF4G.R.C” value was 0.929 and the “RPPA level HLA.DQA1.R.V” value was 1.033. For the same molecule, the “RPPA level HLA.DR.DP.DQ.DX.R.C” value was 0.982, the “RPPA level HMHA1.R.V” value was 0.975 and the “RPPA level HSP27.M.C” value was 1.029. The “RPPA level HSP27_pS82.R.V” value was 0.988, the “RPPA level HSP70.R.C” value was 0.942 and the “RPPA level Hexokinase.II.R.V” value was 0.989. For the same molecule, the “RPPA level Hif.1αR.C” value was 0.977, the “RPPA level Histone.H3.R.V” value was 0.887 and the “RPPA level IDO.R.C” value was 1.004. The “RPPA level IGF1R_pY1135_Y1136.R.V” value was 0.943, the “RPPA level IGFBP2.R.V” value was 0.781 and the “RPPA level IGFBP3.M.V” value was 0.976. For the same molecule, the “RPPA level IGFRb.R.C” value was 0.929, the “RPPA level IL.6.R.C” value was 0.956 and the “RPPA level IMP3.R.C” value was 1.001. The “RPPA level IR.b.R.C” value was 1.049, the “RPPA level IRF.1.R.V” value was 0.861 and the “RPPA level IRS1.R.V” value was 0.974. The “RPPA level IRS2.R.C” value was 0.998, the “RPPA level JAB1.M.C” value was 1.013 and the “RPPA level JNK2.R.V” value was 1.853. The “RPPA level JNK_pT183_Y185.R.C” value was 0.981, the “RPPA level Jagged1.R.V” value was 0.989 and the “RPPA level Jak2.R.V” value was 0.961. For the same molecule, the “RPPA level KAP1.R.V” value was 0.913, the “RPPA level KEAP1.R.V” value was 0.975 and the “RPPA level LC3A.B.R.C” value was 0.954. For the same molecule, the “RPPA level LCN2.R.V” value was 1.252, the “RPPA level LDHA.R.C” value was 1.005 and the “RPPA level LRP6_pS1490.R.V” value was 0.929. For the same molecule, the “RPPA level Lck.R.V” value was 0.974, the “RPPA level MACC1.R.V” value was 1.049 and the “RPPA level MAPK_pT202_Y204.R.C” value was 0.956. The “RPPA level MCT4.R.V” value was 0.820, the “RPPA level MDM2_pS166.R.V” value was 1.004 and the “RPPA level MEK1.R.V” value was 1.435. For the same molecule, the “RPPA level MEK1_pS217_S221.R.V” value was 0.992, the “RPPA level MEK2.R.V” value was 0.978 and the “RPPA level MERIT40.R.C” value was 0.950. The “RPPA level MERIT40_pS29.R.V” value was 1.020, the “RPPA level METTL3.R.V” value was 1.051 and the “RPPA level MIF.R.C” value was 1.063. The “RPPA level MIG6.R.V” value was 1.022, the “RPPA level MLH1.M.V” value was 0.972 and the “RPPA level MLKL.R.V” value was 0.916. The “RPPA level MMP2.R.V” value was 0.984, the “RPPA level MMP14.R.V” value was 1.009 and the “RPPA level MRAP.R.C” value was 1.048. The “RPPA level MSH2.R.C” value was 1.016, the “RPPA level MSH6.R.C” value was 0.997 and the “RPPA level MSI2.R.C” value was 0.997.

Source: article PMC9127750, “Structure-based design of CDC42 effector interaction inhibitors for the treatment of cancer” (Cell reports, 2022)
